According to paper PMC5863483, “Low HLA binding of diabetes-associated CD8+ T-cell epitopes is increased by post translational modifications” (BMC Immunology, 2018):
*1 amine or outer side, *2 acyl side, *3 side chain or, on linkers, in order; H or OH if unused. Where a SMILES comes first, the peptide text is derived from it. Where no end group is shown, it is not given here. [ ]: non-standard residue; d: D form. Tyr(3-Cl) = N[C@@H](Cc1ccc(O)c(Cl)c1)C(=O)O; γGlu = O=C(O)[C@H](CCC(=O)[*:2])N[*:1]; βAsp = O=C(O)[C@H](CC(=O)[*:2])N[*:1]; Cya = N[C@@H](CS(=O)(=O)O)C(=O)O; Cit = NC(=O)NCCC[C@H](N)C(=O)O

Target: HLA-A*02:01 (Homo sapiens, UniProt P04439, D140Y/D185E/D98H/E176V/E277Q/G131W/G231S/I119V/I121R/I166T/I218V/L300P/L318F/N151K/N90K/P208A/P217A/Q86G/Q94H/R138H/R169H/T345S)
Assay: HLA-peptide competition binding assay, A*02:01
Details: not given

Row | Compound | IC50 [nM]
1 | RGYYYTPKT | 8810
2 | SLTTISTTL [reference compound] | 237
3 | HLCGSHLVEA [reference compound] | 7540

Same assay, conditions: increase of A*02:01 binding of the modified peptide compared to the WT peptide

Row | Fold increase [fold] | Compound
4 | 2.13 | CC(C)C[C@H](NC(=O)[C@@H](N)Cc1ccc(O)c(Cl)c1)C(=O)N[C@H](C(=O)N[C@@H](CS)C(=O)NCC(=O)N[C@@H](CCC(=O)O)C(=O)N[C@@H](CCCNC(=N)N)C(=O)NCC(=O)N[C@@H](Cc1ccccc1)C(=O)O)C(C)C [JLVCGERGF] (H-[Tyr(3-Cl)]LVCGERGF-OH; N-terminus and C-terminus assumed)

Same assay, conditions: post-translationally modified insulin peptide; competition binding assay; a dash indicates IC50 >40,000 nM; read-out: A*02:01 binding (IC50 nM) Modified

Row | IC50 [nM] | Compound
5 | > 40000 | CC[C@H](C)[C@H](NC(=O)CNC(=O)[C@H](CCCNC(N)=O)NC(=O)[C@H](CCCCN)NC(=O)[C@H](CCC(N)=O)NC(=O)[C@@H](N)CC(C)C)C(=O)N[C@H](C(=O)N[C@@H](CCC(=O)O)C(=O)N[C@@H](CCC(N)=O)C(=O)O)C(C)C (H-LQK[Cit]GIVEQ-OH; N-terminus and C-terminus assumed)
6 | > 40000 | C[C@H](NC(=O)[C@H](CCC(=O)O)NC(=O)[C@H](CCCNC(N)=O)NC(=O)[C@H](CCCNC(N)=O)NC(=O)[C@@H](NC(=O)[C@H](CCCCN)NC(=O)[C@@H]1CCCN1C(=O)[C@@H](N)[C@@H](C)O)[C@@H](C)O)C(=O)N[C@@H](CCC(=O)O)C(=O)N[C@@H](CC(=O)O)C(=O)O [TPKTUUEAED] (H-TPKT[Cit][Cit]EAED-OH; N-terminus and C-terminus assumed)
7 | > 40000 | RGYFYTPKT
8 | > 40000 | CC(C)C[C@H](NC(=O)[C@H](CC(=O)O)NC(=O)[C@H](CCC(=O)O)NC(=O)[C@H](C)NC(=O)[C@H](CCC(=O)O)NC(=O)[C@H](CCCNC(N)=O)NC(=O)[C@@H](N)CCCNC(N)=O)C(=O)N[C@@H](CCC(N)=O)C(=O)N[C@H](C(=O)NCC(=O)O)C(C)C (H-[Cit][Cit]EAEDLQVG-OH; N-terminus and C-terminus assumed)
9 | > 40000 | CC(C)C[C@H](NC(=O)[C@H](Cc1c[nH]cn1)NC(=O)CC[C@H](NC(=O)C[C@H](NC(=O)[C@@H](N)C(C)C)C(=O)O)C(=O)O)C(=O)N[C@@H](CS)C(=O)NCC(=O)N[C@@H](CO)C(=O)N[C@@H](Cc1c[nH]cn1)C(=O)O [VOZHLCGSH] (H-V[βAsp][γGlu]HLCGSH-OH; N-terminus and C-terminus assumed)
10 | > 40000 | LVCGERGYF
11 | > 40000 | CC(C)C[C@H](N)C(=O)N[C@H](C(=O)N[C@@H](CS)C(=O)NCC(=O)N[C@@H](CCC(=O)O)C(=O)N[C@@H](CCCNC(N)=O)C(=O)NCC(=O)N[C@@H](Cc1ccccc1)C(=O)N[C@@H](Cc1ccccc1)C(=O)O)C(C)C (H-LVCGE[Cit]GFF-OH; N-terminus and C-terminus assumed)
12 | > 40000 | CC(C)C[C@H](NC(=O)[C@H](Cc1c[nH]cn1)NC(=O)[C@H](CO)NC(=O)CNC(=O)[C@H](CS)NC(=O)[C@H](CC(C)C)NC(=O)[C@H](Cc1c[nH]cn1)NC(=O)CC[C@H](NC(=O)C[C@H](NC(=O)[C@@H](N)C(C)C)C(=O)O)C(=O)O)C(=O)O [VOZHLCGSHL] (H-V[βAsp][γGlu]HLCGSHL-OH; N-terminus and C-terminus assumed)
13 | > 40000 | CC(C)C[C@H](NC(=O)[C@H](Cc1c[nH]cn1)NC(=O)[C@H](CO)NC(=O)CNC(=O)[C@H](CS(=O)(=O)O)NC(=O)[C@H](CC(C)C)NC(=O)[C@H](Cc1c[nH]cn1)NC(=O)[C@H](CCC(N)=O)NC(=O)[C@@H](N)CC(N)=O)C(=O)O [NQHLBGSHL] (H-NQHL[Cya]GSHL-OH; N-terminus and C-terminus assumed)
14 | > 40000 | CC(C)C[C@H](NC(=O)[C@H](CC(=O)O)NC(=O)[C@H](CCC(=O)O)NC(=O)[C@H](C)NC(=O)[C@H](CCC(=O)O)NC(=O)[C@H](CCCNC(N)=O)NC(=O)[C@H](CCCNC(N)=O)NC(=O)[C@@H](NC(=O)[C@@H](N)CCCCN)[C@@H](C)O)C(=O)O (H-KT[Cit][Cit]EAEDL-OH; N-terminus and C-terminus assumed)
15 | > 40000 | CC(C)C[C@H](NC(=O)[C@H](Cc1c[nH]cn1)NC(=O)[C@H](CCC(N)=O)NC(=O)[C@H](CC(N)=O)NC(=O)[C@@H](NC(=O)[C@@H](N)Cc1ccccc1)C(C)C)C(=O)N[C@@H](CS(=O)(=O)O)C(=O)NCC(=O)N[C@@H](CO)C(=O)O [FVNQHLBGS] (H-FVNQHL[Cya]GS-OH; N-terminus and C-terminus assumed)
16 | > 40000 | CC(C)C[C@H](NC(=O)[C@H](Cc1c[nH]cn1)NC(=O)[C@@H](N)CCC(N)=O)C(=O)N[C@@H](CS(=O)(=O)O)C(=O)NCC(=O)N[C@@H](CO)C(=O)N[C@@H](Cc1c[nH]cn1)C(=O)N[C@@H](CC(C)C)C(=O)N[C@H](C(=O)N[C@@H](CCC(=O)O)C(=O)O)C(C)C [QHLBGSHLVE] (H-QHL[Cya]GSHLVE-OH; N-terminus and C-terminus assumed)
17 | > 40000 | C[C@@H](O)[C@H](NC(=O)[C@H](Cc1ccc(O)cc1)NC(=O)[C@H](Cc1ccccc1)NC(=O)[C@H](Cc1ccccc1)NC(=O)CNC(=O)[C@H](CCCNC(N)=O)NC(=O)[C@H](CCC(=O)O)NC(=O)CNC(=O)[C@@H](N)CS)C(=O)N1CCC[C@H]1C(=O)O (H-CGE[Cit]GFFYTP-OH; N-terminus and C-terminus assumed)

Same assay, conditions: post-translationally modified insulin-derived peptide; radiolabeled ligand competition, purified MHC, two-day incubation, three or more independent experiments; read-out: A*02:01 binding, Modified

Row | IC50 [nM] | Compound
18 | 7240 | EHLCGSHLV
19 | 3240 | CC(C)C[C@H](NC(=O)[C@@H](N)Cc1ccc(O)cc1)C(=O)N[C@H](C(=O)N[C@@H](CS(=O)(=O)O)C(=O)NCC(=O)N[C@@H](CCC(=O)O)C(=O)N[C@@H](CCCNC(=N)N)C(=O)NCC(=O)N[C@@H](Cc1ccc(O)cc1)C(=O)O)C(C)C [YLVBGERGY] (H-YLV[Cya]GERGY-OH)

Same assay, conditions: read-out: A*02:01 binding (IC50 nM) Modified

Row | IC50 [nM] | Compound
20 | 2010 | YLVCGERGYF
21 | 14800 | CC(C)C[C@H](NC(=O)[C@H](Cc1c[nH]cn1)NC(=O)[C@H](CO)NC(=O)CNC(=O)[C@H](CS(=O)(=O)O)NC(=O)[C@@H](N)CC(C)C)C(=O)N[C@H](C(=O)N[C@@H](CCC(=O)O)C(=O)N[C@@H](C)C(=O)O)C(C)C [LBGSHLVEA] (H-L[Cya]GSHLVEA-OH)
22 | 11400 | CC(C)C[C@H](NC(=O)[C@@H](N)Cc1ccc(O)cc1)C(=O)N[C@H](C(=O)N[C@@H](CS)C(=O)NCC(=O)N[C@@H](CCC(=O)O)C(=O)N[C@@H](CCCNC(N)=O)C(=O)NCC(=O)N[C@@H](Cc1ccccc1)C(=O)O)C(C)C (H-YLVCGE[Cit]GF-OH)
23 | 26300 | CGERGYFYT
24 | 83 | CC(C)C[C@H](NC(=O)[C@H](CC(C)C)NC(=O)[C@H](C)NC(=O)[C@H](CC(C)C)NC(=O)[C@H](CC(C)C)NC(=O)[C@@H]1CCCN1C(=O)[C@H](CC(C)C)NC(=O)[C@H](CC(C)C)NC(=O)[C@@H](N)CCCNC(N)=O)C(=O)O (H-[Cit]LLPLLALL-OH)
25 | 98 | CSCC[C@H](N)C(=O)N[C@@H](CCCNC(N)=O)C(=O)N[C@@H](CC(C)C)C(=O)N[C@@H](CC(C)C)C(=O)N1CCC[C@H]1C(=O)N[C@@H](CC(C)C)C(=O)N[C@@H](CC(C)C)C(=O)N[C@@H](C)C(=O)N[C@@H](CC(C)C)C(=O)N[C@@H](CC(C)C)C(=O)O (H-M[Cit]LLPLLALL-OH)
26 | 10800 | YLVCGERGY
27 | 1860 | CSCC[C@H](N)C(=O)N[C@@H](CCCNC(N)=O)C(=O)N[C@@H](CC(C)C)C(=O)N[C@@H](CC(C)C)C(=O)N1CCC[C@H]1C(=O)N[C@@H](CC(C)C)C(=O)N[C@@H](CC(C)C)C(=O)N[C@@H](C)C(=O)N[C@@H](CC(C)C)C(=O)O [MULLPLLAL] (H-M[Cit]LLPLLAL-OH)

Same assay, conditions: read-out: A*02:01 binding (IC50 nM) Modified; post-translationally modified insulin peptide; competition binding assay; a dash indicates IC50 >40,000 nM

Row | Compound | IC50 [nM]
28 | ERGYYYTPK | > 40000
29 | C[C@@H](O)[C@H](NC(=O)[C@H](Cc1ccc(O)cc1)NC(=O)[C@H](Cc1ccc(O)cc1)NC(=O)[C@H](Cc1ccc(O)cc1)NC(=O)CNC(=O)[C@H](CCCNC(=N)N)NC(=O)[C@H](CCC(=O)O)NC(=O)CNC(=O)[C@@H](N)CS(=O)(=O)O)C(=O)N1CCC[C@H]1C(=O)O [BGERGYYYTP] (H-[Cya]GERGYYYTP-OH; N-terminus and C-terminus assumed) | > 40000

Same assay, conditions: read-out: A*02:01 binding (IC50 nM) WT

Row | IC50 [nM] | Compound
30 | 10 | MRLLPLLALL
31 | 1770 | GSHLVEALYL

Same assay, conditions: read-out: IC50 nM, target assay A*02:01

Row | IC50 [nM] | Compound
32 | 109 | RLLPLLALLAL [RLLPLLALLAL, reference compound]
33 | 1310 | ALTAVAEEV [reference compound]
34 | 675 | ILVLASTITI [reference compound]
35 | 101 | FMTSSWWRA [reference compound]
36 | 880 | KMYAFTLES [reference compound]
37 | 101 | SLSPLQAEL [reference compound]
38 | 91 | RLLCALTSL [reference compound]
39 | 637 | ELAEYLYNI [reference compound]
40 | 581 | RLGPVARTRV [reference compound]
41 | 5.8 | GLLQVHHSCPL [reference compound]
42 | 1010 | ALWGPDPAAA [reference compound]
43 | 1230 | NLFLFLFAV [reference compound]
44 | 5.4 | RLLPLWAALPL [reference compound]
45 | 1230 | RLQREWHTL [reference compound]
46 | 5420 | LIFDLGGGT [reference compound]
47 | 1150 | SMCRFSPLTL [reference compound]

Same assay, conditions: unmodified (WT) insulin peptide; competition binding assay; a dash indicates IC50 >40,000 nM; read-out: A*02:01 binding (IC50 nM) WT

Row | IC50 [nM] | Compound
48 | > 40000 | CGSHLVEAL [CGSHLVEAL]
49 | > 40000 | VNQHLCGSH
50 | > 40000 | TPKTRREAE
51 | > 40000 | NQHLCGSHL
52 | > 40000 | EGSLQKRGI
53 | > 40000 | TPKTRREAED [TPKTRREAED]
54 | > 40000 | KTRREAEDLQ
55 | > 40000 | TRREAEDLQ
56 | > 40000 | GERGFFYTP
57 | > 40000 | QHLCGSHLVE
58 | > 40000 | LQKRGIVEQC
59 | > 40000 | FFYTPKTRRE

Same assay, conditions: unmodified (wild type) insulin-derived peptide; radiolabeled ligand competition, purified MHC, two-day incubation, three or more independent experiments; read-out: A*02:01 binding, WT

Row | IC50 [nM] | Compound
60 | 33700 | CGSHLVEALY
